Structures are written as SMILES.

For assay [1], the target named is T1, human DYRK1A (Homo sapiens, UniProt Q13627). Briefly: Human DYRK1A kinase functional assay (CEREP, LANCE detection). Type of assay: biochemical. Further details: CEREP (France), contract assay provider. The protocol:
(II) Human DYRK1A Kinase Functional Assay and IC50 Measurements.
Compound profiling in a human DYRK1A kinase functional assay was performed by CEREP (France). The effects of compounds on the activity of human DYRK1A were evaluated and quantified by measuring the phosphorylation of the substrate Ulight-CFFKNIVTPRTPPPSQGK-amide (MBP) using a human recombinant enzyme and the LANCE® detection method, as described by Himpel et al, J. Biol. Chem., 275: 2431 (2000). The inhibitory activity of the compounds was expressed as a percent inhibition of the control kinase activity. Activities of the compounds at 50% or higher inhibition were selected for IC50 determination. Compounds were tested at 6 concentrations in duplicate for IC50 determination. The standard inhibitory reference compound was staurosporine, which was tested in each experiment at 8 concentrations to obtain an inhibition curve from which its IC50 value was calculated.
In certain embodiments, compounds have a low IC50 value in the DYRK1A kinase functional assay. […] The human DYRK1A kinase functional assay has been used to test the compounds of the Examples disclosed.

The target in assay [2] is T1, human DYRK1A. Briefly: Human DYRK1A kinase competitive binding assay (Ambit Biosciences). Further details: Ambit Biosciences (San Diego, Calif., USA), contract assay provider. How it is done:
(I) Human DYRK1A Kinase Binding Assay and Binding Constant Measurements. Human DYRK1A kinase profiles in a competitive binding assay were performed by Ambit Biosciences (San Diego, Calif., USA). Activity was recorded via a competition binding assay of human DYRK1A kinase that was fused to a proprietary tag. Measurements of the amount of DYRK1A kinase bound to an immobilized, active-site directed ligand in the presence and absence of the test compound provided a percentage of DMSO control for binding of ligand. Activities between 1% and 10% were selected for Kd determination. Dendrogram representations were generated by an in-house visualization tool designated as PhyloChem. In certain embodiments, compounds have a low Kd value in the DYRK1A kinase binding assay. […] The human DYRK1A kinase binding assay has been used to test the compounds of the Examples disclosed.

For `Cc1nc2c(c3c1[nH]c1ccccc13)C(=O)CC1(CCCCC1)C2` [Example 12, 6-methyl-3′H-spirocyclohexane-2,3,4,7-tetrahydroindolo[2,3-c]quinolin-1-one], the IC50 at human DYRK1A [1] was less than 10 µM. Same read-out and setting: to `COc1ccc2[nH]c3cnc4c(c3c2c1)C(=O)CC(C)(C)C4` [Example 14, 10-methoxy-3,3-dimethyl-2,3,4,7-tetrahydroindolo[2,3-c]quinolin-1-one] belongs less than 10 µM; to `Cc1nc2c(c3c1[nH]c1ccc(Cl)cc13)C(=O)CC(C)(C)C2` [Example 13, 10-chloro-3,3,6-trimethyl-2,3,4,7-tetrahydroindolo[2,3-c]quinolin-1-one], less than 5 µM. `Cc1nc2c(c3c1[nH]c1ccc(F)cc13)C(=O)CC(C)(C)C2` [Example 4, 10-fluoro-3,3,6-trimethyl-2,3,4,7-tetrahydroindolo[2,3-c]quinolin-1-one] showed an IC50 against human DYRK1A [1] of less than 2 µM. At human DYRK1A [2], the Kd was less than 1 µM. At human DYRK1A [2], `COc1ccc2[nH]c3c(C)nc4c(c3c2c1)C(=O)CC(C)(C)C4` [Example 6, 10-methoxy-3,3,6-trimethyl-2,3,4,7-tetrahydroindolo[2,3-c]quinolin-1-one] yielded a Kd of less than 5 µM. Molecule `CCc1nc2c(c3c1[nH]c1ccccc13)C(=O)CC(C)(C)C2` [Example 10, 6-ethyl-3,3-dimethyl-2,3,4,7-tetrahydro-indolo[2,3-c]quinolin-1-one] registered a 50% inhibitory concentration (IC50) at human DYRK1A [1] of less than 5 µM. For the molecule `CCc1nc2c(c3c1[nH]c1ccc(F)cc13)C(=O)CC(C)(C)C2` [Example 16, 10-fluoro-6-ethyl-3,3,-dimethyl-2,3,4,7-tetrahydroindolo[2,3-c]quinolin-1-one], the IC50 on human DYRK1A [1] was less than 2 µM.

`Cc1nc2c(c3c1[nH]c1ccccc13)C(=O)CC(C)C2` (stereo not shown) [Example 8, 3,6-dimethyl-2,3,4,7-tetrahydroindolo[2,3-c]quinolin-1-one] registered a half-inhibitory concentration (IC50) on human DYRK1A [1] of less than 5 µM. For the molecule `Cc1nc2c(c3c1[nH]c1cccc(F)c13)C(=O)CC(C)(C)C2` [Example 2, 11-fluoro-3,3,6-trimethyl-2,3,4,7-tetrahydroindolo[2,3-c]quinolin-1-one], at human DYRK1A [1], the IC50 was less than 5 µM. The molecule also yielded a Kd on human DYRK1A [2] of less than 1 µM. In the case of `CC1(C)CC(=O)c2c(ncc3[nH]c4ccccc4c23)C1` [Example 11, 3,3-dimethyl-2,3,4,7-tetrahydroindolo[2,3-c]quinolin-1-one], the IC50 on human DYRK1A [1] was less than 5 µM. In turn, `CCc1nc2c(c3c1[nH]c1cccc(F)c13)C(=O)CC(C)(C)C2` [Example 15, 11-fluoro-6-ethyl-3,3,-dimethyl-2,3,4,7-tetrahydroindolo[2,3-c]quinolin-1-one] returned an IC50 against human DYRK1A [1] of less than 5 µM.

These data come from US20110021776A1, “COMPOSITIONS FOR THE TREATMENT OF CENTRAL NERVOUS SYSTEM DISEASES AND DISORDERS” (MediProPharma, Inc., priority 2006, published 2011).
